Data published in patent publication US20080318781A1, “Method of Controlling Weeds” (priority 2005, published 2008).

Assays:
Type in all cases: in vivo
Giant ragweed (AMBTR) [1] = test: Example 1 field test, pre-plant treatment: weed control; conditions: 44 days after treatment, use rate g/ha: glyphosate 870, I.7 25, I.7 + glyphosate 25 + 870, I.7 + imazethapyr 25 + 70
Excerpt: (§1) The phenyluracils I and/or the other active ingredients according to the present invention were formulated in a suitable way, either separately or in mixture, e.g. as emulsifiable concentrates (EC), soluble concentrates (SL), suspo-emulsions (SE), suspension concentrates (SC) or water-dispersible granules (WG). The formulation(s) were suspended or emulsified in water as a distribution medium immediately prior to spraying. Afterwards, the aqueous mixture was evenly sprayed on the test plots by means of finely distributing nozzles.
(§2) The test plots were of uniform size (typically between 14 and 37 square meters, each) and the distribution of treated and untreated plots was organized according to a randomised bloc design. Crops were sown in rows at a season which was typical for the region and the crop according to usual farm practice. Weeds were not sown but germinated according to the natural infestation.
(§3) For pre-plant and pre-plant burn-down treatments, the plots were treated before the crop was planted, typically 7 to 28 days prior to planting. For pre-emergence treatments, the plots were treated at planting (plus or minus two days) but before emergence. For post-emergence or in-crop treatments, the plots were treated after the emergence of the weed or crop, typically 20 to 50 days after planting. […]

Velvetleaf (ABUTH) [2] = test: as above; conditions: 44 days after treatment, use rate g/ha: glyphosate 870, I.7 25, I.7 + glyphosate 25 + 870, I.7 + imazethapyr 25 + 70
Excerpt: as §1, §2, §3

[3] = test system: glyphosate resistant soybeans; test: Example 2 field test, pre-plant burn-down treatment followed by in-crop glyphosate: phytotoxicity in crop; conditions: 86 days after first treatment; pre-plant burn-down (glyphosate 870 g/ha or I.7 50 g/ha), followed by glyphosate 870 g/ha at 53 DAT; crop planted at 8 DAT
Excerpt: as §1, §2, §3

Giant ragweed (AMBTR) [4] = test: Example 2 field test, pre-plant burn-down treatment followed by in-crop glyphosate: weed control; conditions: 86 days after first treatment; pre-plant burn-down (glyphosate 870 g/ha or I.7 50 g/ha), followed by glyphosate 870 g/ha at 53 DAT
Excerpt: as §1, §2
(§4) For pre-plant and pre-plant burn-down treatments, the plots were treated before the crop was planted, typically 7 to 28 days prior to planting. For pre-emergence treatments, the plots were treated at planting (plus or minus two days) but before emergence. For post-emergence or in-crop treatments, the plots were treated after the emergence of the weed or crop, typically 20 to 50 days after planting.
(§5) The evaluation of the damage caused by the phenyluracils I and/or the other active ingredients according to the present invention was carried out using a scale from 0 to 100%, compared to the untreated control plots. Here, 0 means no damage and 100 means complete destruction of the plants of a respective weed or crop species.
(§6) Weed control in glyphosate resistant soybeans 86 days after the first treatment; pre-plant burn-down treatment followed by an in-crop glyphosate treatment at 53 DAT; field test.
(§7) In this example, glyphosate (potassium salt) was formulated as a 540 g/l SL and phenyluracil I.7 as a 120 g/l EC. […]

Velvetleaf (ABUTH) [5] = test: as above; conditions: 86 days after first treatment; pre-plant burn-down (glyphosate 870 g/ha or I.7 50 g/ha), followed by glyphosate 870 g/ha at 53 DAT
Excerpt: as §1, §2, §4, §5, §6, §7

[6] = test system: Common lambsquarters (CHEAL); test: as above; conditions: 86 days after first treatment; pre-plant burn-down (glyphosate 870 g/ha or I.7 50 g/ha), followed by glyphosate 870 g/ha at 53 DAT
Excerpt: as §1, §2, §4, §5, §6, §7

[7] = test system: glyphosate resistant soybeans; test: Example 1 field test, pre-plant treatment: phytotoxicity in crop; conditions: 44 days after treatment, crop planted at 15 DAT, use rate g/ha: glyphosate 870, I.7 25, I.7 + glyphosate 25 + 870, I.7 + imazethapyr 25 + 70, 0 = no damage, 100 = complete destruction
Excerpt: as §1, §2, §3

[8] = test system: glyphosate resistant soybeans; test: Example 3 field test, pre-plant treatment followed by in-crop glyphosate: phytotoxicity in crop; conditions: 57 days after first treatment; pre-plant (glyphosate 870; I.7 25; I.7 + glyphosate 25 + 870; I.7 + imazethapyr 25 + 70 g/ha), followed by glyphosate 870 g/ha at 42 DAT; crop planted at 12 DAT
Excerpt: as §1, §2, §3

Giant ragweed (AMBTR) [9] = test: Example 3 field test, pre-plant treatment followed by in-crop glyphosate: weed control; conditions: 57 days after first treatment; pre-plant (glyphosate 870; I.7 25; I.7 + glyphosate 25 + 870; I.7 + imazethapyr 25 + 70 g/ha), followed by glyphosate 870 g/ha at 42 DAT
Excerpt: as §1, §2, §3

[10] = test system: Common lambsquarters (CHEAL); test: as above; conditions: 57 days after first treatment; pre-plant (glyphosate 870; I.7 25; I.7 + glyphosate 25 + 870; I.7 + imazethapyr 25 + 70 g/ha), followed by glyphosate 870 g/ha at 42 DAT
Excerpt: as §1, §2, §3

O=C(O)CNCP(=O)(O)O [Glyphosate, glyphosate]
Weed control (% control) Giant ragweed (AMBTR) (Giant ragweed (AMBTR) [1]): 86%
Weed control (% control) Velvetleaf (ABUTH) (Velvetleaf (ABUTH) [2]): 17%
Phytotoxicity in glyphosate resistant soybeans (% damage) [3]: 0%
Weed control (% control) Giant ragweed (AMBTR) (Giant ragweed (AMBTR) [4]): 86%
Weed control (% control) Velvetleaf (ABUTH) (Velvetleaf (ABUTH) [5]): 91%
Weed control (% control) Common lambsquarters (CHEAL) [6]: 89%
Phytotoxicity in glyphosate resistant soybeans (% damage) [7]: 0%
Phytotoxicity in glyphosate resistant soybeans (% damage) [8]: 0%
Weed control (% control) Giant ragweed (AMBTR) (Giant ragweed (AMBTR) [9]): 72%
Weed control (% control) Common lambsquarters (CHEAL) [10]: 83%
